From BindingDB's records for doi:10.1021/bi300261p (University of Colorado Boulder, 2012) come the findings set out here.

The target of the test is T1, Pentachlorophenol 4-monooxygenase (Sphingobium chlorophenolicum, UniProt P42535).
T1 sequence (P42535 whole entry): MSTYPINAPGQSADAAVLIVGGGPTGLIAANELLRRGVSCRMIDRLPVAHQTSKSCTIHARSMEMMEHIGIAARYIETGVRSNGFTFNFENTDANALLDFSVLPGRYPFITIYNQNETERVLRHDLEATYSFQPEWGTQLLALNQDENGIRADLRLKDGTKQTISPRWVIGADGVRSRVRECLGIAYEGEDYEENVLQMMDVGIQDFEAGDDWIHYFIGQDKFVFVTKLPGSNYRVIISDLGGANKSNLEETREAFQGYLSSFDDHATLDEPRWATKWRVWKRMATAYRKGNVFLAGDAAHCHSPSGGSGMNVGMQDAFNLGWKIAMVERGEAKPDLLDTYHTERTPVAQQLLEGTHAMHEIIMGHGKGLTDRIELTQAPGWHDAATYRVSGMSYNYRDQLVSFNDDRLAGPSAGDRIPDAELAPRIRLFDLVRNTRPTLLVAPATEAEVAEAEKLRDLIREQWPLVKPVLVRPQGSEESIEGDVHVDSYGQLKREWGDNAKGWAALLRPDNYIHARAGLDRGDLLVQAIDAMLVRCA
Nature of the test: Spectroscopic Assay. On the procedure: Formation of the hydroxylated product and depletion of NADPH were measured following ethyl acetate extraction of the reaction mixture.
Consider `Oc1c(Cl)c(Cl)cc(Cl)c1Cl` [2,3,4,6-Tetrachlorophenol (TCP)], for which binding was characterised by a dissociation constant (Kd) of 11 µM.

`Oc1c(Cl)c(Cl)c(Cl)c(Cl)c1Cl` [Pentachlorophenol (PCP)] came in with a Kd of less than 0.05 µM.

`Oc1ccccc1Cl` [2-Chlorophenol (2-CP)]: the Kd is greater than 1000 µM.

Compound `Oc1cc(Cl)cc(Cl)c1` [3,5-Dichlorphenol (3,5-DCP)] returned a Kd greater than 500 µM.

In turn, `Oc1cc(Cl)c(Cl)c(Cl)c1` [SMR001307309] returned a Kd greater than 500 µM.

Compound `Oc1c(Cl)c(Cl)c(O)c(Cl)c1Cl` [Tetrachlorohydroquinone (TCHQ)] displayed a Kd of 4.2 µM.

In turn, `Oc1c(Cl)cccc1Cl` [2,6-Dichlorophenol] came in with a Kd of 45.5 µM.

`Oc1c(Cl)cc(Cl)cc1Cl` [2,4,6-Trichlorophenol (2,4,6-TriCP)]: the Kd turned out to be 7 µM.

What is called Kd is the equilibrium constant for the complex coming apart. High values mean weaker binding, low ones tighter binding.
